In article PMC9953315, “Cytochrome P450 Surface Domains Prevent the β-Carotene Monohydroxylase CYP97H1 of Euglena gracilis from Acting as a Dihydroxylase” (Biomolecules, 2023):

Key:
Experiment in all cases: in vivo carotenoid production in E. coli, HPLC-DAD and LC-MS
Format in all cases: cell-based
tCYP97A3At = biological target: T1, tCYP97A3At (Arabidopsis thaliana, UniProt Q93VK5); settings: beta-carotene producing E. coli, S. oleracea ferredoxin / ferredoxin reductase co-expressed, product beta-cryptoxanthin
T1 construct: gene CYP97A3; first 77 residues deleted, no MBP tag; expressed in beta-carotene producing E. coli with Spinacia oleracea ferredoxin / ferredoxin reductase
T1 sequence (Q93VK5 78-595): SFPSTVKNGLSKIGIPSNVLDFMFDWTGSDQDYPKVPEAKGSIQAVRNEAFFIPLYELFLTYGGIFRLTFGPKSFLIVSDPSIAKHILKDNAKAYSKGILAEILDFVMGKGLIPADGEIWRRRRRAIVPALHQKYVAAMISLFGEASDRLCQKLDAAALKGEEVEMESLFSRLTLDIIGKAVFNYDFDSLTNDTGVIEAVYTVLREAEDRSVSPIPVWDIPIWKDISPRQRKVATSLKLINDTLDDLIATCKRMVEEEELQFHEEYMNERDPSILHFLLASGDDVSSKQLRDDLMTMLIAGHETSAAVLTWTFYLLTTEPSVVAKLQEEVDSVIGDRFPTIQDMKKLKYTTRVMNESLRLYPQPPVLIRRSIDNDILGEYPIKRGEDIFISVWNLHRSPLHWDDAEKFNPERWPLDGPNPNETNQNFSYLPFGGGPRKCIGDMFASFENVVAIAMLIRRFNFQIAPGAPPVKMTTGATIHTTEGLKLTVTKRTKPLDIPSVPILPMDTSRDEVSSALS

tCYP97H1 [1] = biological target: T2, tCYP97H1 (Euglena gracilis, UniProt A0A1Y1C5R9); settings: beta-carotene producing E. coli, S. oleracea ferredoxin / ferredoxin reductase co-expressed, product beta-cryptoxanthin
T2 construct: gene CYP97H1; plastid signal M1-L116 deleted; E. coli codon optimised; expressed in beta-carotene producing E. coli with Spinacia oleracea ferredoxin / ferredoxin reductase
T2 sequence (A0A1Y1C5R9 entry or part of it): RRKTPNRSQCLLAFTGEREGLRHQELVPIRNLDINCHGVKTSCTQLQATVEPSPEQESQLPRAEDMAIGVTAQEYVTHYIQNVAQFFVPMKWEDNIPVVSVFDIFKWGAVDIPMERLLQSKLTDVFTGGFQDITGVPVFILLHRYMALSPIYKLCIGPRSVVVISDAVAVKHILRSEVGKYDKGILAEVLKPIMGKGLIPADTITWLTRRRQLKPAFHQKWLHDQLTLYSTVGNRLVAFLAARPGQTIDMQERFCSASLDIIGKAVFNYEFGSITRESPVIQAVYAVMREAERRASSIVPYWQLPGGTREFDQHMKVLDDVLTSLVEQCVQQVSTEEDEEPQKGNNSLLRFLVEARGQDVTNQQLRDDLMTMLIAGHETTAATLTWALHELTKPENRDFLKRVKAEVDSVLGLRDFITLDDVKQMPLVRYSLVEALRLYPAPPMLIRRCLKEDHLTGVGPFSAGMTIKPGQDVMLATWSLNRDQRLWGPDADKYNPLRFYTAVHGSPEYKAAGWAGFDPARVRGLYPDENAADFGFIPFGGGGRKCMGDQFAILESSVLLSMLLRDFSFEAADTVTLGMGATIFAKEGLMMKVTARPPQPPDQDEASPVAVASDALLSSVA

tCYP97H1 [2] = biological target: T3, tCYP97H1 (Euglena gracilis, UniProt A0A1Y1C5R9, F218A); settings: beta-carotene producing E. coli, S. oleracea ferredoxin / ferredoxin reductase co-expressed, product beta-cryptoxanthin
T3 construct: gene CYP97H1; plastid signal M1-L116 deleted; E. coli codon optimised; expressed in beta-carotene producing E. coli with Spinacia oleracea ferredoxin / ferredoxin reductase
T3 sequence (A0A1Y1C5R9 entry or part of it F218A): as the sequence (A0A1Y1C5R9 entry or part of it) above, with F102A counted along it

tCYP97H1 [3] = biological target: T4, tCYP97H1 (Euglena gracilis, UniProt A0A1Y1C5R9, F221A); settings: beta-carotene producing E. coli, S. oleracea ferredoxin / ferredoxin reductase co-expressed; product beta-cryptoxanthin
T4 construct: gene CYP97H1; plastid signal M1-L116 deleted; E. coli codon optimised; expressed in beta-carotene producing E. coli with Spinacia oleracea ferredoxin / ferredoxin reductase
T4 sequence (A0A1Y1C5R9 entry or part of it F221A): as the sequence (A0A1Y1C5R9 entry or part of it) above, with F105A counted along it

tCYP97H1 [4] = biological target: T5, tCYP97H1 (Euglena gracilis, UniProt A0A1Y1C5R9, F246A); settings: beta-carotene producing E. coli, S. oleracea ferredoxin / ferredoxin reductase co-expressed; product beta-cryptoxanthin
T5 construct: gene CYP97H1; plastid signal M1-L116 deleted; E. coli codon optimised; expressed in beta-carotene producing E. coli with Spinacia oleracea ferredoxin / ferredoxin reductase
T5 sequence (A0A1Y1C5R9 entry or part of it F246A): as the sequence (A0A1Y1C5R9 entry or part of it) above, with F130A counted along it

tCYP97H1 [5] = biological target: T6, tCYP97H1 (Euglena gracilis, UniProt A0A1Y1C5R9, F242A); settings: beta-carotene producing E. coli, S. oleracea ferredoxin / ferredoxin reductase co-expressed; product beta-cryptoxanthin
T6 construct: gene CYP97H1; plastid signal M1-L116 deleted; E. coli codon optimised; expressed in beta-carotene producing E. coli with Spinacia oleracea ferredoxin / ferredoxin reductase
T6 sequence (A0A1Y1C5R9 entry or part of it F242A): as the sequence (A0A1Y1C5R9 entry or part of it) above, with F126A counted along it

[6] = beta-cryptoxanthin formed in situ, side product zeaxanthin

SMILES | in vivo carotenoid production in E. coli, HPLC-DAD and LC-MS (tCYP97A3At; beta-cryptoxanthin formed in situ, product zeaxanthin) | in vivo carotenoid production in E. coli, HPLC-DAD and LC-MS (tCYP97H1 [1]; [6]) | in vivo carotenoid production in E. coli, HPLC-DAD and LC-MS (tCYP97H1 [2]; [6]) | in vivo carotenoid production in E. coli, HPLC-DAD and LC-MS (tCYP97H1 [3]) | in vivo carotenoid production in E. coli, HPLC-DAD and LC-MS (tCYP97A3At) | in vivo carotenoid production in E. coli, HPLC-DAD and LC-MS (tCYP97H1 [1]) | in vivo carotenoid production in E. coli, HPLC-DAD and LC-MS (tCYP97H1 [4]) | in vivo carotenoid production in E. coli, HPLC-DAD and LC-MS (tCYP97H1 [2]) | in vivo carotenoid production in E. coli, HPLC-DAD and LC-MS (tCYP97H1 [5])
CC1=C(/C=C/C(C)=C/C=C/C(C)=C/C=C/C=C(C)/C=C/C=C(C)/C=C/C2=C(C)C[C@@H](O)CC2(C)C)C(C)(C)CCC1 [β-cryptoxanthin] | β-cryptoxanthin and zeaxanthin detection were confirmed by mass spectrometry in the strain ETL154, expressing CYP97A3 | A small side production of zeaxanthin was detected with CYP97H1 and the F105A mutant | the zeaxanthin:β-cryptoxanthin ratio was displaced in favour of zeaxanthin |  |  |  |  |  | 
CC1=C(/C=C/C(C)=C/C=C/C(C)=C/C=C/C=C(C)/C=C/C=C(C)/C=C/C2=C(C)CCCC2(C)C)C(C)(C)CCC1 [β-carotene] |  |  |  | All these single mutants exhibited reduced β-cryptoxanthin production | production of a small amount of hydroxylated β-carotene in vivo | the deletion of the plastid peptide signal from residue M1 to L116 improved activity | All these single mutants exhibited reduced β-cryptoxanthin production | All these single mutants exhibited reduced β-cryptoxanthin production | All these single mutants exhibited reduced β-cryptoxanthin production
